This note sets out measurements from paper PMC5573538, “Contrasting effects of phosphatidylinositol 4,5‐bisphosphate on cloned TMEM16A and TMEM16B channels” (British Journal of Pharmacology, 2017).

Molecules are shown by their SMILES.

One assay addresses T1, TMEM16B (Mus musculus, UniProt Q8CFW1).
T1 construct: gene Ano2; mouse TMEM16B isoform A, expressed in HEK-293T cells
T1 sequence (Q8CFW1 1-1002): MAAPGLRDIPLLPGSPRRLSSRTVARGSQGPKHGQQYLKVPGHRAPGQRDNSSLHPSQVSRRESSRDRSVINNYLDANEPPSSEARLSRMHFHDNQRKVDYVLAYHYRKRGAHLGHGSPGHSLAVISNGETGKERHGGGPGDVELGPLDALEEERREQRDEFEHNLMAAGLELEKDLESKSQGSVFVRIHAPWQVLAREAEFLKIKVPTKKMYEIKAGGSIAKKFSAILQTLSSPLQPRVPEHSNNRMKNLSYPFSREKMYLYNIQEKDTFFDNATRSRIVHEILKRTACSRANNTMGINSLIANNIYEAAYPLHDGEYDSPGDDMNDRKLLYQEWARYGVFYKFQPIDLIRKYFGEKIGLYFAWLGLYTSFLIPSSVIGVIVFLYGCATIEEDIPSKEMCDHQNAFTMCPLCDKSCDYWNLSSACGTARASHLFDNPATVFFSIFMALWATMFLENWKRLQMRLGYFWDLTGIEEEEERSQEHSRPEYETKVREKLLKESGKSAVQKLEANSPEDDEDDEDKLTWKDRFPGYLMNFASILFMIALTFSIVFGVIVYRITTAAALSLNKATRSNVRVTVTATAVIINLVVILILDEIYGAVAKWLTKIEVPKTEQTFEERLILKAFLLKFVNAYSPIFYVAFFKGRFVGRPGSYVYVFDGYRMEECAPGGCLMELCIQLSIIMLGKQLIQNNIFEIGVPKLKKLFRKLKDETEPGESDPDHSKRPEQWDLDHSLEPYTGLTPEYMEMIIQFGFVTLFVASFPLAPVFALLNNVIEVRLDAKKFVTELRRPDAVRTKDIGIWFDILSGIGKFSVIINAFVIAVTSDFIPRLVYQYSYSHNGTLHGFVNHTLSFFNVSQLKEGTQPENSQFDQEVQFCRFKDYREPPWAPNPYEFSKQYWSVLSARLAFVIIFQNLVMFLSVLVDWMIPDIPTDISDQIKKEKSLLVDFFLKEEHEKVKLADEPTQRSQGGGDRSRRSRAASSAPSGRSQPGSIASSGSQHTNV
The assay can be described thus: inside-out patch clamp, excised patches from HEK-293T cells, +[…] mV, […] Ca2+ (partial current inhibition). The format is biochemical. As to conditions: read-out: K i. (In general: Patch clamp records ionic current or voltage across a cell membrane.)

The target in another assay is T2, TMEM16A (Mus musculus, UniProt Q8BHY3).
T2 construct: gene Ano1; mouse TMEM16A isoform (ac), expressed in HEK-293T cells
T2 sequence (Q8BHY3 1-960): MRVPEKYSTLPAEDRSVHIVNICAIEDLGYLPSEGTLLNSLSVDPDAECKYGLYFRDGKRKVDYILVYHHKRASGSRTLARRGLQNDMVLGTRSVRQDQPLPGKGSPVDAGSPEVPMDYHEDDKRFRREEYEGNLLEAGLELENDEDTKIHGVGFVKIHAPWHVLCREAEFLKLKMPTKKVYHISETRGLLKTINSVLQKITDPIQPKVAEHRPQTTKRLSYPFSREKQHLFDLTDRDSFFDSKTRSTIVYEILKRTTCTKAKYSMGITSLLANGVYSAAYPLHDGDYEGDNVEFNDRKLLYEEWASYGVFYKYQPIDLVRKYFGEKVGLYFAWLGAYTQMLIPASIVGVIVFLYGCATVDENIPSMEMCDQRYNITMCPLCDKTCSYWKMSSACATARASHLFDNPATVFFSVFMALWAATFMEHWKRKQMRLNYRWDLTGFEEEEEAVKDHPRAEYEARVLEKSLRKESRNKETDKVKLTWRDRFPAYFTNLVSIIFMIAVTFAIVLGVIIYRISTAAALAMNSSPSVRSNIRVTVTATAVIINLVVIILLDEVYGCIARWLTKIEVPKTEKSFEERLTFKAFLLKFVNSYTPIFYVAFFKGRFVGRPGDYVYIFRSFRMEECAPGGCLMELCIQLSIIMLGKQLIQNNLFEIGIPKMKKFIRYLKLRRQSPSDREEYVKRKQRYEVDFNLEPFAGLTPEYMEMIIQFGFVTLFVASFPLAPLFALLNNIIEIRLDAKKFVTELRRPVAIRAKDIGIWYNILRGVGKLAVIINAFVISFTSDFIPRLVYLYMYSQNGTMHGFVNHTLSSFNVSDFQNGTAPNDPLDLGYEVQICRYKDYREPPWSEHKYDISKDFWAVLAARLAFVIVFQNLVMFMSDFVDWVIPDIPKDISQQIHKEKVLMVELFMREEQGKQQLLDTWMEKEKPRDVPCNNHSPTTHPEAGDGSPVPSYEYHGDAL
In words: inside-out patch clamp, excised patches from HEK-293T cells, +[…] mV, […] Ca2+ (current activation). To be noted: read-out: K a. Type of assay: biochemical.

Take `CCCCCCCC(=O)OC[C@H](COP(=O)(O)O[C@@H]1[C@H](O)[C@H](O)[C@@H](OP(=O)(O)O)[C@H](OP(=O)(O)O)[C@H]1O)OC(=O)CCCCCCC` [diC8‐PIP2]: the IC50 at TMEM16B turned out to be 46 ± 2 µM. At TMEM16A, the EC50 amounted to 53 ± 9 µM.
